Measured values from patent US20200115357A1, “LIVER X RECEPTORS (LXR) MODULATORS” (Phenex-FXR GmbH, priority 2017, published 2020).
pEC50: −log10 of the molar value.

Legend:
[1] = biological target: T1, GST-LXRβ ligand-binding domain (Homo sapiens, UniProt P55055, DUP175-175); assay: TR-FRETβ activity assay (LXRβ-LBD / NCoA3 coactivator peptide, prestimulated with 24(S)-25-epoxycholesterol); format: biochemical; parameters: key to behavior in FRET assay: ag=agonist; ia=inverse agonist; conditions: for pEC50: 1 μM 24(S)-25-epoxycholesterol as prestimulating agonist, read-out: FRETβ activity range (EC50); for behavior in FRET assay: agonist or inverse agonist
T1 construct: amino acids 156-461; NP009052; made in house; host or cells: E. coli
T1 sequence (P55055 with tags, fused parts or gaps DUP175-175): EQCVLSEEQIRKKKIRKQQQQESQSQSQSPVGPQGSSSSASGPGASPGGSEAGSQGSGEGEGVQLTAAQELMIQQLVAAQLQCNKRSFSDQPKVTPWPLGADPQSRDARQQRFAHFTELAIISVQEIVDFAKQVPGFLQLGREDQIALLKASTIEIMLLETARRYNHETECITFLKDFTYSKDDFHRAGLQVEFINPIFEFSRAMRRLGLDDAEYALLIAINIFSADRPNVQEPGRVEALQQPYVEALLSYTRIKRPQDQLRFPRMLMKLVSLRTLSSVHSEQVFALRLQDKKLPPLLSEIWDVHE
In short: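 E. coli-expressed GST-LXRβ LBD (aa 156-461) at 76 nM with biotinylated NCoA3 coactivator peptide (400 nM), in 240 mM KCl, BSA and Triton-X-100. Anti-GST-Tb cryptate/streptavidin-XL665 TR-FRET after 1 h equilibration at 4 °C, excitation 340 nm, emission 615 and 665 nm. Run in triplicate.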

[2] = biological target: T2, LXRβ ligand-binding domain (LBD) (Homo sapiens, UniProt P55055, DUP175-175); assay: LXR Gal4 reporter transient transfection assay (M2H), Gal4β LBD; format: cell-based; conditions: HEK293 cells; read-out: M2H Gal4β LBD activity range (EC50)
T2 construct: LXRβ (amino acids 156-461); expressed in transfected cells; host or cells: HEK293
T2 sequence (P55055 with tags, fused parts or gaps DUP175-175): T1 sequence (P55055 with tags, fused parts or gaps DUP175-175)
Experimental: The tested compounds were usually dissolved, tested and stored as 20 mM stock solutions in DMSO. Since sulfonyl acetic acid derivatives tend to decarboxylate under these conditions, these stock solutions were prepared, tested and stored as 20 mM DMSO stock solutions containing 100 mM trifluoroacetic acid (5 equivalents). Sulfonyl acetic acid derivatives are shelf stable as solid at rt for long time as reported by Griesbrecht et al. (Synlett 2010:374) or Faucher et al. (J. Med. Chem. 2004; 47:18).
LXR Gal4 Reporter Transient Transfection Assays
LXRα and LXRβ activity status was determined via detection of interaction with coactivator and corepressor proteins in mammalian two-hybrid experiments (M2H). For this, via transient transfection the full length (FL) proteins of LXRα (amino acids 1-447; NP005684; SEQ ID NO:7) or LXRβ-(amino acids 1-461; NP009052; SEQ ID NO:8) or the ligand-binding domains (LBD) of LXRα (amino acids 155-447 SEQ ID NO:3) or LXRβ (amino acids 156-461; SEQ ID NO:4) were expressed from pCMV-AD (Stratagene) as fusions to the transcriptional activation domain of NFkB. As cofactors, domains of either the steroid receptor coactivator 1 (SRC1; amino acids 552-887; SEQ ID NO:5) or of the corepressor NCoR (amino acids 1903-2312 SEQ ID NO:6) were expressed as fusions to the DNA binding domain of the yeast transcription factor GAL4 (from pCMV-BD; Stratagene). Interaction was monitored via activation of a coexpressed Firefly Luciferase Reporter gene under control of a promoter containing repetitive GAL4 response elements (vector pFRLuc; Stratagene). Transfection efficiency was controlled via cotransfection of constitutively active pRL-CMV Renilla reniformis luciferase reporter (Promega). HEK293 cells were grown in minimum essential medium (MEM) with 2 mM L-glutamine and Earle's balanced salt solution supplemented with 8.3% fetal bovine serum, 0.1 mM non-essential amino acids, 1 mM sodium pyruvate, at 37° C. in 5% CO2. 3.5×10^4 cells/well were plated in 96-well cell culture plates in growth medium supplemented with 8.3% fetal bovine serum for 16-20 h to ˜90% confluency. For transfection, medium was taken off and LXR and cofactor expressing plasmids as well as the reporter plasmids are added in 30 μL OPTIMEM/well including polyethylene-imine (PEI) as vehicle. Typical amounts of plasmids transfected/well: pCMV-AD-LXR (5 ng), pCMV-BD-cofactor (5 ng), pFR-Luc (100 ng), pRL-CMV (0.5 ng). Compound stocks were prepared in DMSO, prediluted in MEM to a total volume of 120 μL, and added 4 h after addition of the transfection mixture (final vehicle concentration not exceeding 0.2%). Cells were incubated for additional 16 h, lysed for 10 min in 1× Passive Lysis Buffer (Promega) and Firefly and Renilla luciferase activities were measured sequentially in the same cell extract using buffers containing D-luciferine and coelenterazine, respectively. Measurements of luminescence were done in a BMG-Iuminometer.

[3] = Pharmacokinetics in mice, blood and liver exposure via LC-MS; format: in vivo; conditions: for target tissue liver reached (in words): mice, systemic exposure minimized; for liver/blood ratio, 4 h / blood exposure, 4 h / liver exposure, 4 h: Dose (mg) 20, C57BL/6J mice; for blood exposure, 4 h / liver exposure, 4 h: 4 h after administration
Experimental: The pharmacokinetics of different sulfonamides was assessed in mice after single dosing and oral and intraperitoneal administrations. Blood and liver exposure was measured via LC-MS.
The study design was as follows:
Animals: C57BL/6J (Janvier) males
Diet: standard rodent chow
Vehicle for i.p. injection: 0.5% HPMC (w:v) in water, injection volume: <5 mL/kg
Animal handling: animals were withdrawn from food at least 12 h before administration
Design: single dose oral and bid ip administration, n=3 animals per group
Sacrifice: at t=4 h after administration
Bioanalytics: LC-MS of liver and blood samples

SMILES	pEC50 [1]	behavior in FRET assay [1]	pEC50 [2]	target tissue liver reached (in words) [3]	liver/blood ratio, 4 h ([3]; po)	blood exposure, 4 h ([3]; po)	liver exposure, 4 h ([3]; po)	liver/blood ratio, 4 h ([3]; ip)	blood exposure, 4 h ([3]; ip)	liver exposure, 4 h ([3]; ip)
Cc1cc(C)c(S(=O)(=O)N(Cc2ccc(-c3cccc(CC(=O)O)c3)cc2)C(C)c2ccc(C(F)(F)F)o2)c(C)c1 (stereo not drawn) [2/2]	6.00 to 7.00	ia	> 7.00							
Cc1cc(C)c(S(=O)(=O)N(Cc2ccc(-c3cccc(S(=O)(=O)C(C)(C)C(=O)O)c3)cc2)Cc2ccc(C(F)(F)F)o2)c(C)c1 [5/2]	5.00 to 6.00	ia	6.00 to 7.00							
Cc1cc(C)c(S(=O)(=O)N(Cc2ccc(-c3cccc(C(C)(C)C(=O)O)c3)cc2)Cc2ccc(C(F)(F)F)o2)c(C)c1 [7/5]	6.00 to 7.00	ia	> 7.00	effectively reached	po: 18	po: 300 ng/mL	po: 5398 ng/mL			
COc1cc(-c2cccc(C(C)(C)C(=O)O)c2)ccc1CN(Cc1ccc(C(F)(F)F)o1)S(=O)(=O)c1c(C)cc(C)cc1C [10/4]	> 7.00	ia	> 7.00	effectively reached	po: 11	po: 189 ng/mL	po: 2136 ng/mL			
Cc1cc(C)c(S(=O)(=O)N(Cc2ccc(C(F)(F)F)o2)Cc2ccc(-c3cccc(C(C)(C)C(=O)O)c3)cc2Cl)c(C)c1 [10/5]	> 7.00	ia	> 7.00	effectively reached	po: 21	po: 242 ng/mL	po: 5120 ng/mL			
Cc1ccc2ccccc2c1S(=O)(=O)N(Cc1ccc(-c2cccc(S(=O)(=O)CC(=O)O)c2)cc1)Cc1cccc(C(F)(F)F)c1 [11/19]	5.00 to 6.00	ia		effectively reached	po: 125	po: 0.01 μM	po: 1.07 μM			
Cc1cc(C)c(S(=O)(=O)N(Cc2ccc(-c3cccc(CC(=O)O)c3)cc2)Cc2ccc(C(F)(F)F)o2)c(C)c1 [Example 2, 2-(4′-(((2,4,6-Trimethyl-N-((5-(trifluoromethyl)furan-2-yl)methyl)phenyl)sulfonamido)methyl)-[1,1′-biphenyl]-3-yl)acetic acid]	6.00 to 7.00	ia	> 7.00							
Cc1cc(C)c(S(=O)(=O)N(Cc2ccc(-c3cccc(S(=O)(=O)CC(=O)O)c3)cc2)Cc2ccc(C(F)(F)F)o2)c(C)c1 [Example 5, 2-((4′-(((2,4,6-Trimethyl-N-((5-(trifluoromethyl)furan-2-yl)methyl)phenyl)sulfonamido)methyl)-[1,1′-biphenyl]-3-yl)sulfonyl)acetic acid]	5.00 to 6.00			effectively reached	po: 31	po: 0.15 μM	po: 4.6 μM	ip: 27	ip: 0.34 μM	ip: 9.3 μM
Cc1ccc2ccccc2c1S(=O)(=O)N(Cc1ccc(-c2cccc(C(C)(C)C(=O)O)c2)cc1)Cc1ccc(C(F)(F)F)o1 [Example 24, 2-Methyl-2-(4′-(((2-methyl-N-((5-(trifluoromethyl)furan-2-yl)methyl)naphthalene)-1-sulfonamido)methyl)-[1,1′-biphenyl]-3-yl)propanoic acid]	> 7.00	ia	> 7.00	effectively reached	po: 25	po: 231 ng/mL	po: 5882 ng/mL			
Cc1cc(C)c(S(=O)(=O)N(Cc2ccc(-c3cc(F)c(CO)c(S(C)(=O)=O)c3)cc2)Cc2ccc(C(F)(F)F)o2)c(C)c1 [Example C3/2]	> 7.00	ia	> 7.00		po: 0.56	po: 115 ng/mL	po: 64 ng/mL			
